# Like-named read-outs stand apart in the source and are kept apart here.
# Columns and labels:
# [1] = tested on: S. typhi; assay: Antimicrobial serial tube dilution, MIC and MBC; format: cell-based, Salmonella typhi MTCC 3216; details: for MIC / MBC: Salmonella enterica, TYPHI; for MIC: 24 h, read-out: S. typhi MIC; for MBC: read-out: S. typhi MBC; for S. typhi MIC: 24 h at 37 ± 2 °C
# Method: (§1) The synthesized diazenyl chalcones (C18 to C27) and controls (dyes A and E, and chalcone) were assessed for their antimicrobial activity by estimation of MIC and MBC/MFC values. […] The stock solutions of the test compounds and standard drugs having a concentration of 1000 µg ml^−1 were prepared by dissolving the used compounds in DMSO. The nutrient broth/Sabouraud dextrose broth was used for the serial dilution of the test compounds and referenced drugs for bacterial and fungal cultures, respectively. […] The size of the final inoculum in each test tube was taken as 5 × 10^5 CFU ml^−1. The incubation of the test and standard compounds of varying concentrations was done for 24 h at 37 ± 2 °C (bacterial culture) and for 48 h at 37 ± 2 °C (C. albicans) and for 7 d at 25 ± 2 °C (A. fumigatus). The diazenyl chalcones (C18–C27), were further evaluated for their bactericidal/fungicidal activity by estimation of MBC/MFC values. […] For proper mixing of culture media, the plates were shaken gently followed by incubation at the predefined temperature and time as stated earlier, followed by the visual inspection of the plates for signs of microbial growth.
# [2] = tested on: B. subtilis; assay: Antimicrobial serial tube dilution, MIC and MBC; format: cell-based, Bacillus subtilis MTCC 2063
# Method: as §1
# [3] = tested on: E. coli; assay: Antimicrobial serial tube dilution, MIC and MBC; format: cell-based, Escherichia coli MTCC 1652
# Method: as §1
# [4] = tested on: S. aureus; assay: Antimicrobial serial tube dilution, MIC and MBC; format: cell-based, Staphylococcus aureus MTCC 2901
# Method: as §1
# [5] = tested on: B. cereus; assay: Antimicrobial serial tube dilution, MIC and MBC; format: cell-based, Bacillus cereus MTCC 1305
# Method: as §1
# [6] = DPPH scavenging antioxidant assay
# Method: The derivatives (C18–C27) were assessed for their antioxidant potential in the presence of the stable free radical DPPH using ascorbic acid as the standard compound [36, 37]. […] The total volume of 200 µl was used in each well for each concentration of the test and standard drug containing 0.004 µg DPPH. The assay was performed in triplicate at all concentrations of each sample and standard compound. DPPH solutions in methanol at the same concentration without test drugs were used as the control. Each concentration of the sample and standard has a different blank. To minimize evaporation, the plate was covered with the lid and wrapped in aluminium foil and kept in the dark place in order to protect the DPPH radical from degradation by light and left for 30 min. After 30 min of incubation, the plate was kept in ELISA reader to measure the absorbance values at 517 nm. The experiment was performed in triplicate. The antioxidant activity of each sample was then calculated as per cent inhibition of DPPH according to the following equation: %decolourationofDPPH=ControlAbs-SampleAbs×100/ControlAbs
# [7] = tested on: A. fumigatus; assay: Antimicrobial serial tube dilution, MIC and MFC; format: cell-based, Aspergillus fumigatus MTCC 2584; details: for A. fumigatus MIC: 7 d at 25 ± 2 °C; for MIC / MFC: Aspergillus fumigatus; for MIC: 168 h, read-out: A. fumigatus MIC; for MFC: read-out: A. fumigatus MFC
# Method: as §1
# [8] = tested on: C. albicans; assay: Antimicrobial serial tube dilution, MIC and MFC; format: cell-based, Candida albicans MTCC 227; details: for C. albicans MIC: 48 h at 37 ± 2 °C; for MIC / MFC: Candida albicans; for MIC: 48 h, read-out: C. albicans MIC; for MFC: read-out: C. albicans MFC
# Method: as §1
# [9] = Bacillus subtilis, read-out: B. subtilis MBC
# [10] = Bacillus subtilis; 24 h at 37 ± 2 °C; read-out: B. subtilis MIC
# [11] = Escherichia coli; 24 h at 37 ± 2 °C; read-out: E. coli MIC
# [12] = Staphylococcus aureus; 24 h at 37 ± 2 °C; read-out: S. aureus MIC
# [13] = Staphylococcus aureus; read-out: S. aureus MBC
# [14] = Bacillus cereus; read-out: B. cereus MBC
# [15] = Bacillus subtilis, 24 h, read-out: B. subtilis MIC
# [16] = Escherichia coli, 24 h, read-out: E. coli MIC, 24 h at 37 ± 2 °C
# [17] = Escherichia coli, read-out: E. coli MBC
# [18] = Staphylococcus aureus, 24 h, read-out: S. aureus MIC
# [19] = Staphylococcus aureus, read-out: S. aureus MBC
# [20] = Bacillus cereus, 24 h, read-out: B. cereus MIC
# [21] = Bacillus cereus, read-out: B. cereus MBC
SMILES,MIC [1],MBC [1],"MBC [2, 9]","MIC [4, 12]","MBC [4, 13]","MBC [5, 14]",IC50 DPPH [6],% inhibition of DPPH ([6]; 1.56 µg ml^−1),% inhibition of DPPH ([6]; 3.12 µg ml^−1),% inhibition of DPPH ([6]; 6.25 µg ml^−1),% inhibition of DPPH ([6]; 12.5 µg ml^−1),% inhibition of DPPH ([6]; 25 µg ml^−1),% inhibition of DPPH ([6]; 50 µg ml^−1),% inhibition of DPPH ([6]; 100 µg ml^−1),E. coli MIC ([3]; 24 h at 37 ± 2 °C),"MIC [2, 15]","MIC [3, 16]","MBC [3, 17]",melting point,"MIC [5, 20]",further results
"CC1=C(C(=O)O)N2C(=O)[C@@H](NC(=O)[C@H](N)c3ccc(O)cc3)[C@H]2SC1 [Cefadroxil, cefadroxil, reference compound]",125 µg/mL,125 µg/mL,125 µg/mL,15.6 µg/mL,31.2 µg/mL,31.2 µg/mL,,,,,,,,,,,,,,,"MIC [2, 10]: 62.5 µg/mL; MIC [3, 11]: 31.2 µg/mL; MBC ([3]; Escherichia coli; read-out: E. coli MBC): 31.2 µg/mL; MIC ([5]; Bacillus cereus; 24 h at 37 ± 2 °C; read-out: B. cereus MIC): 31.2 µg/mL"
"O=C1O[C@H]([C@@H](O)CO)C(O)=C1O [Ascorbic acid, ascorbic acid, reference compound]",,,,,,,4.45 µg/mL,39.22%,46.53%,80.07%,84.09%,87.81%,89.95%,90.31%,,,,,,,IC50 DPPH ([6]; listed as Ascorbic Acid): 4.451 µg/mL
"O=C(/C=C/c1ccc(Cl)cc1Cl)c1ccc(O)cc1 [Chalcone, (E)-3-(2,4-dichlorophenyl)-1-(4-hydroxyphenyl)prop-2-en-1-one]",,,,,,,76.77 µg/mL,6.54%,8.12%,10.76%,16.90%,21.57%,34.56%,51.80%,15.62 µg/mL,,,,,,S. typhi MBC [1]: 62.5 µg/mL; S. typhi MIC [1]: 31.25 µg/mL; B. subtilis MBC [2]: 62.5 µg/mL; B. subtilis MIC ([2]; 24 h at 37 ± 2 °C): 62.5 µg/mL; E. coli MBC [3]: 31.25 µg/mL; A. fumigatus MFC [7]: 125 µg/mL; A. fumigatus MIC [7]: 125 µg/mL; S. aureus MBC [4]: 62.5 µg/mL; S. aureus MIC ([4]; 24 h at 37 ± 2 °C): 31.25 µg/mL; B. cereus MBC [5]: 62.5 µg/mL; B. cereus MIC ([5]; 24 h at 37 ± 2 °C): 62.5 µg/mL; C. albicans MFC [8]: 125 µg/mL; C. albicans MIC [8]: 125 µg/mL
"O=C(/C=C\c1ccccc1[N+](=O)[O-])c1cccc(N=Nc2cccc(Cl)c2Cl)c1O [Compound C-20, (2Z)-1-(3-((2,3-Dichlorophenyl)diazenyl)-2-hydroxyphenyl)-3-(2-nitrophenyl)prop-2-en-1-one]",125 µg/mL,125 µg/mL,125 µg/mL,,,,> 100 µg/mL,8.15%,9.87%,10.51%,14.32%,18.96%,20.76%,29.39%,,62.5 µg/mL,125 µg/mL,250 µg/mL,105 to 107 °C,125 µg/mL,"MIC [7]: 125 µg/mL; MFC [7]: 125 µg/mL; MIC [4, 18]: 125 µg/mL; MBC [4, 19]: 125 µg/mL; MBC [5, 21]: 125 µg/mL; MIC [8]: 125 µg/mL; MFC [8]: 250 µg/mL"
"O=C(/C=C\c1cc(Br)ccc1O)c1ccc(N=Nc2c(O)cccc2O)cc1 [Compound C-21, (2Z)-3-(5-Bromo-2-hydroxyphenyl)-1-(4-((2,6-dihydroxyphenyl)diazenyl)phenyl)prop-2-en-1-one]",31.2 µg/mL,125 µg/mL,62.5 µg/mL,,,,,8.71%,12.99%,20.98%,25.71%,30.75%,35.78%,39.56%,15.62 µg/mL,31.2 µg/mL,7.81 to 15.6 µg/mL,31.2 µg/mL,155 to 157 °C,62.5 µg/mL,"MIC [7]: 125 µg/mL; MFC [7]: 125 µg/mL; MIC [4, 18]: 125 µg/mL; MBC [4, 19]: 125 µg/mL; MBC [5, 21]: 62.5 µg/mL; MIC [8]: 62.5 µg/mL; MFC [8]: 125 µg/mL"
"O=C(O)c1cn(C2CC2)c2cc(N3CCNCC3)c(F)cc2c1=O [CIP, ciprofloxacin, reference compound]",7.81 µg/mL,7.81 µg/mL,,1.95 µg/mL,3.9 µg/mL,15.6 µg/mL,,,,,,,,,,7.81 µg/mL,,7.81 µg/mL,,7.81 µg/mL,"MBC ([2]; Bacillus subtilis; read-out: B. subtilis MBC): 15.6 µg/mL; MIC [3, 11]: 3.9 µg/mL"
"CC(=O)c1ccc(N=Nc2c(O)cccc2O)cc1 [Dye E, 1-(4-((2,6-Dihydroxyphenyl)diazenyl)phenyl)ethanone]",125 µg/mL,125 µg/mL,125 µg/mL,,,,69.40 µg/mL,7.89%,12.68%,19.80%,26.18%,34.89%,47.56%,56.78%,,62.5 µg/mL,31.2 µg/mL,31.2 µg/mL,240 to 242 °C,62.5 µg/mL,"MIC [7]: 125 µg/mL; MFC [7]: 125 µg/mL; MIC [4, 18]: 31.2 µg/mL; MBC [4, 19]: 62.5 µg/mL; MBC [5, 21]: 62.5 µg/mL; MIC [8]: 125 µg/mL; MFC [8]: 125 µg/mL"
"CO/N=C(\C(=O)N[C@@H]1C(=O)N2C(C(=O)O)=C(COC(C)=O)CS[C@H]12)c1csc(N)n1 [Cefotaxime, cefotaxime, reference compound]",3.9 µg/mL,7.81 µg/mL,7.81 µg/mL,15.6 µg/mL,31.2 µg/mL,15.6 µg/mL,,,,,,,,,,,7.81 µg/mL,7.81 µg/mL,,7.81 µg/mL,"MIC [2, 10]: 1.95 µg/mL"
"O=C(/C=C\c1cccc(Br)c1)c1cccc(N=Nc2cc(Cl)ccc2Cl)c1O [Compound C-26, (2Z)-3-(3-Bromophenyl)-1-(3-((2,5-dichlorophenyl)diazenyl)-2-hydroxyphenyl)prop-2-en-1-one]",,,,,,,,5.72%,7.91%,11.90%,14.04%,21.98%,24.65%,29.62%,62.5 µg/mL,,,,,,S. typhi MBC [1]: 62.5 µg/mL; S. typhi MIC [1]: 15.62 µg/mL; B. subtilis MBC [2]: 62.5 µg/mL; B. subtilis MIC ([2]; 24 h at 37 ± 2 °C): 62.5 µg/mL; E. coli MBC [3]: 125 µg/mL; A. fumigatus MFC [7]: 125 µg/mL; A. fumigatus MIC [7]: 125 µg/mL; S. aureus MBC [4]: 31.25 µg/mL; S. aureus MIC ([4]; 24 h at 37 ± 2 °C): 7.81 µg/mL; B. cereus MBC [5]: 250 µg/mL; B. cereus MIC ([5]; 24 h at 37 ± 2 °C): 250 µg/mL; C. albicans MFC [8]: 125 µg/mL; C. albicans MIC [8]: 125 µg/mL; log IC50 DPPH ([6]; Fig. 1): 1.349
